Measured values: US7375132B2, “Compounds and methods for inhibiting cellular responses to hypoxia” (University of Mississippi, priority 2004, dated 2008)

How the values were obtained:
T47D cells [1] = test: Cell viability by Neutral Red assay under hypoxic conditions; format: cell-based, human; settings: similar hypoxic conditions
Description: The data presented in FIGS. 2 and 3 are averages from one representative experiment performed in quadruplicate and the bars represent standard errors. Accordingly, a compound of Formula (I) is shown to have a selective effect on physiological hypoxia-induced HIF-1 activation, relative to “chemical hypoxia”-induced HIF-1. To rule out false positives associated with cytotoxicity, the effects of Formula (I) on cell viability are examined.

HIF-1 [2] = test: Cell-based HIF-1 luciferase reporter assay, HIF-1 activation by iron chelator 1,10-phenanthroline (chemical hypoxia); parameters: species or system human; settings: T47D cells; 1,10-phenanthroline at 10 μM; compound about 3 μM (FIG. 3)
Protocol: For these studies, exponentially grown T47D cells are transiently transfected with the pTK-HRE3-luc and pGL3-control (Promega) reporters and plated into 96-well plates. The pGL3-control reporter contains a modified reporter (cloned from Photinus pyralis) under the control of a SV40 early promoter and provides low-level, constitutive expression in mammalian cells as internal control.
About 24 hours after plating, a compound of Formula (I) is added to the transfected T47D cells. Following incubation at about 37° C. for about 30 minutes, the cells are exposed to hypoxic conditions (1% O2/5% CO2/94% N2) or chemical hypoxia (iron chelator 1,10-phenanthroline at 10 μM) for 16 hr. At the end of incubation, the cells are harvested and both luciferase activities determined using a Luciferase Assay System (Promega). Luciferase activity from the pTK-HRE3-luc reporter was compared to luciferase activity from the pGL3-control reporter.

HIF-1 [3] = test: Cell-based HIF-1 luciferase reporter assay (pTK-HRE3-luc), HIF-1 activation by hypoxia; settings: Homo sapiens; T47D cells; 1% O2/5% CO2/94% N2, 16 hr; read-out: IC50, inhibition of hypoxia-induced HIF-1 activity
Description: To identify functional antagonists of HIF-1, the present inventors have established a cell-based reporter assay for inhibitors of HIF-1 in hypoxia responsive human breast carcinoma T47D cells. Breast cancer was chosen as the target for this drug discovery effort, due to the high incidence of this disease and the urgent need to identify chemotherapeutic agents that target tumor hypoxia, the comprehensive knowledge base of breast cancer etiology, and the availability of well-studied human breast carcinoma cell lines as in vitro models. In addition, HIF-1α overexpression is associated with advanced stages of breast cancer and poor prognosis. The activity of HIF-1 is monitored using a luciferase reporter under the control of HRE from the erythropoietin gene (pTK-HRE3-luc). Natural product-rich extracts (dissolved in DMSO) are evaluated for activities that inhibit HIF-1 activation by hypoxia (about: 1% O2/5% CO2/94% N2).
For these studies, exponentially grown T47D cells are transiently transfected with the pTK-HRE3-luc and pGL3-control (Promega) reporters and plated into 96-well plates. […]
About 24 hours after plating, a compound of Formula (I) is added to the transfected T47D cells. […] At the end of incubation, the cells are harvested and both luciferase activities determined using a Luciferase Assay System (Promega). […]

secreted VEGF protein [4] = test: Secreted VEGF protein ELISA after 1,10-phenanthroline (chemical hypoxia); format: cell-based, human; settings: T47D cells pretreated with 1,10-phenanthroline (chemical hypoxia)
Protocol: (§1) Since secreted VEGF protein is the bioactive form, compounds that can reduce the level of secreted VEGF protein represent potential tumor angiogenesis inhibitors. Thus, compounds that can inhibit both hypoxic activation of HIF-1 and hypoxic induction of secreted VEGF protein represent “true” leads that target tumor hypoxia. The effects of compounds of the present invention on hypoxic induction of secreted VEGF protein are examined in T47D cells. Exponentially grown T47D cells were plated at the density of about 30,000 cells/well into 96-well plates. Compound treatment and hypoxic exposure were the same as described. Following incubation, secreted VEGF protein concentrations in the conditioned media are determined by ELISA (R & D Systems) and the data normalized by the number of viable cells. […] Therefore, in addition to its effect on HIF-1, compounds of the present invention have a potential therapeutic application as an agent to inhibit tumor angiogenesis.

[5] = tested on: mitochondrial electron transport pathway; test: Mitochondrial oxygen consumption (FIG. 9); format: biochemical; settings: in the presence of glutamate/malate, ADP; increasing amounts of compound
Protocol: FIG. 9 is a graph showing that a compound of formula 1 inhibits the mitochondrial electron transport pathway. Mitochondrial oxygen consumption was measured, in this example, in the presence of glutamate/malate, ADP and increasing amounts of a compound of formula 1.

HIF-1α protein = test: Western blot of nuclear HIF-1α protein induced by hypoxia; format: cell-based, human; settings: T47D cells; hypoxia about 4 hours; nuclear extract Western blot
Protocol: Since the availability of the oxygen-regulated HIF-1α protein determines the biological activity of HIF-1 and hypoxia induces HIF-1α protein, the effect of compounds of the present invention on the induction of HIF-1α protein are examined in T47D cells. Briefly, exponentially grown T47D cells are exposed to a compound of Formula (I) for about 30 minutes. The incubation then continues for about 4 hours under hypoxic conditions. Nuclear extracts are prepared from control and treated cells. The HIF-1αand HIF-1β proteins in the nuclear extract samples are detected by Western blot, using HIF-1αand HIF-1β specific antibodies (Novus Biologicals). […] Significant inhibition of HIF-1α protein is observed at about 100 nM and complete inhibition is observed at about 1 μM. It is reasonable to conclude that the selectivity of the compounds of the present invention towards hypoxia-activated HIF-1 is caused by selective blockade of the hypoxic induction of HIF-1α protein.

secreted VEGF protein [6] = test: Secreted VEGF protein ELISA after hypoxic treatment; format: cell-based, human; settings: concentrations of 1 μM and above; hypoxic treatment of T47D cells
Protocol: as §1

T47D cells [7] = test: T47D cell survival under hypoxic conditions (FIG. 8); format: cell-based, human

CC1=CC(O)C(C(C)CCC2C(C)C3(C)CCC2(C)O3)CC1 (stereo not drawn) [Formula (I), LAURENDITERPENOL]
effect on T47D cell viability (T47D cells [1]): marginal decrease | effect on iron chelator-induced HIF-1 (HIF-1 [2]): no statistically significant effect | IC50 (HIF-1 [3]): ~0.4 µM | effect on secreted VEGF protein levels (secreted VEGF protein [4]): do not affect | effect on mitochondrial electron transport pathway (oxygen consumption) [5]: inhibits | concentration at which complete inhibition of HIF-1α protein is observed (HIF-1α protein): about 1 μM | concentration at which significant inhibition of HIF-1α protein is observed (HIF-1α protein): about 100 nM | decrease in level of secreted VEGF protein (secreted VEGF protein [6]): about 60% | effect on T47D cell survival (T47D cells [7]): significantly reduced
